Data on four molecules can be found in PubChem BioAssay AID449765 (Vanderbilt High Throughput Screening Facility, 2010).

The target of this experiment is Muscarinic acetylcholine receptor M4 (Homo sapiens) (UniProt P08173). The experiment in a line: human M4 positive allosteric modulators, dose response, cell-based, calcium flux, Millipore GPCR Profiler (AID 449765). As to conditions: M4-expressing cells, calcium flux fluorescence.

By EC50 is commonly meant the concentration needed to bring the measured effect to its halfway point.

Sequence of Muscarinic acetylcholine receptor M4 (Homo sapiens) (P08173 whole entry, looked up): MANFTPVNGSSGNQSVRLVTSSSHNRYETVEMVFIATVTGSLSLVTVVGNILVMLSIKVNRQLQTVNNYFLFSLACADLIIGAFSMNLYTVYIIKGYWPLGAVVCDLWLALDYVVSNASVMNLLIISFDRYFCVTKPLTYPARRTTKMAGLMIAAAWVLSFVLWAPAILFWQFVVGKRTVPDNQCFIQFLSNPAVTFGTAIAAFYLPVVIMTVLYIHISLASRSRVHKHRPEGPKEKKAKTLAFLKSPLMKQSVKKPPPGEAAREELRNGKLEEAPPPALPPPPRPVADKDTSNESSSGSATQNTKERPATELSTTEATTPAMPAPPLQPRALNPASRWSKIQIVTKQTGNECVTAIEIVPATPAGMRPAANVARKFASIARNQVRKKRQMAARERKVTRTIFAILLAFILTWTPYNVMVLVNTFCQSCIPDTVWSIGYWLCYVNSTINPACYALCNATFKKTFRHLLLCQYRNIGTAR

On to `COc1ccc(CNC(=O)c2sc3nc(OCc4ccncc4)cc(C)c3c2N)cc1`, for which the half-maximal effective concentration (EC50) was 100 nM. The figure for `Cc1cc(OCc2ccncc2)nc2sc(C(=O)NCc3cc(F)ccc3F)c(N)c12` is 183 nM. For `Cc1cc(OCCN2CCOCC2)nc2sc(C(=O)NC(C)(C)C)c(N)c12`, the concentration giving a half-maximal response (EC50) is 192 nM.

For the molecule `Cc1cc(OCc2ccncc2)nc2sc(C(=O)NCc3cccc(F)c3F)c(N)c12`, the concentration giving a half-maximal response (EC50) is 95.3 nM.
